Test results published in US20230053437A1, “LIPID COMPOUNDS AND LIPID NANOPARTICLE COMPOSITIONS” (Suzhou Abogen Biosciences Co., Ltd., priority 2020, published 2023).

Experiments:
Assay type in all cases: physicochemical
[1] = Encapsulation efficiency of lipid nanoparticles, Quant-it Ribogreen RNA quantification assay; settings: LNP with hEPO mRNA
Method: (§1) Briefly, a cationic lipid provided herein, DSPC, cholesterol, and PEG-lipid were solubilized in ethanol at a molar ratio of 50:10:38.5:1.5, and mRNA were diluted in 10 to 50 mM citrate buffer, pH=4. The LNPs were prepared at a total lipid to mRNA weight ratio of approximately 10:1 to 30:1 by mixing the ethanolic lipid solution with the aqueous mRNA solution at a volume ratio of 1:3 using a microfluidic apparatus, total flow rate ranging from 9-30 mL/min. Ethanol were thereby removed and replaced by DPBS using dialysis. Finally, the lipid nanoparticles were filtered through a […] sterile filter.
(§2) Lipid nanoparticle size were determined by dynamic light scattering using a Malvern Zetasizer Nano ZS (Malvern UK) using a 173° backscatter detection mode. The encapsulation efficiency of lipid nanoparticles were determined using a Quant-it Ribogreen RNA quantification assay kit (Thermo Fisher Scientific, UK) according to the manufacturer's instructions.

[2] = Lipid nanoparticle size by dynamic light scattering (Malvern Zetasizer Nano ZS); settings: LNP: cationic lipid/DSPC/cholesterol/PEG-lipid 50:10:38.5:1.5 with hEPO mRNA
Method: as §1, §2

[3] = Apparent pKa of LNP formulations, TNS fluorescence assay; settings: LNP cationic lipid/DSPC/cholesterol/DMG-PEG 50/10/38.5/1.5 mol %, pH 3 to 9
Method: As reported in literature, the apparent pKa of LNP formulations correlates with the delivery efficiency of LNPs for nucleic acids in vivo. The apparent pKa of each formulation was determined using an assay based on fluorescence of 2-(p-toluidino)-6-napthalene sulfonic acid (TNS). LNP formulations comprising of cationic lipid/DSPC/cholesterol/DMG-PEG (50/10/38.5/1.5 mol %) in PBS were prepared as described above. TNS was prepared as a 300 uM stock solution in distilled water. LNP formulations were diluted to 0.1 mg/ml total lipid in 3 mL of buffered solutions containing 50 mM sodium citrate, 50 mM sodium phosphate, 50 mM sodium borate, and 30 mM sodium chloride where the pH ranged from 3 to 9. An aliquot of the TNS solution was added to give a final concentration of 0.1 mg/ml and following vortex mixing fluorescence intensity was measured at room temperature in a Molecular Devices Spectramax iD3 spectrometer using excitation and mission wavelengths of 325 nm and 435 nm. A sigmoidal best fit analysis was applied to the fluorescence data and the pKa value was measured as the pH giving rise to half-maximal fluorescent intensity.

SMILES	Encapsulation Efficiency [1] [%]	polydispersity [2]	size (nm) [2] [nm]	Apparant Pka [3]
CCCCCCCCCCCC(=O)OCC1(COC(=O)CCCCCCCCCCC)CCN(C(=O)CCN(C)CCCNc2c(N(C)C)c(=O)c2=O)CC1 [Compound 12]	95.8	0.23	98.67	7.45
CCCCCCCCCCCC(=O)OCC1(COC(=O)CCCCCCCCCCC)CCN(C(=O)CCN(CCC)CCO)CC1 [Compound 22]	93.9	0.252	56.79	7.76
CCCCCCCCCCCC(=O)OCC1(COC(=O)CCCCCCCCCCC)CCN(C(=O)CCN2CCCCCCC2)CC1 [Compound 8]	91.6	0.227	74.14	7.58
CCCCCCCCCOC(=O)CCC1(CCC(=O)OCCCCCCCCC)CCN(C(=O)CCN(C)C)CC1 [Compound 63]	97.4	0.113	82.74	7.859
CCCCCCCCCCCC(=O)OCC1(COC(=O)CCCCCCCCCCC)CCN(C(=O)CCN(C)C)CC1 [Compound 9]	95.5	0.08	70.22	–
CCCCCCCC(=O)OCC1(COC(=O)CCCCCCC)CCN(CCO)CC1 [Compound 62]	94.6	0.122	120.8	6.972
CCCCCCCCCCCC(=O)OCC1(COC(=O)CCCCCCCCCCC)CCN(C(=O)CCN(CCCC)CCCC)CC1 [Compound 30]	80.1	0.056	92.03	6.77
CCCCCCCCCCCC(=O)OCC1(COC(=O)CCCCCCCCCCC)CCN(CCCCO)CC1 [Compound 19]	94.5	0.137	66.82	7.93
CCCCCCCCCCCC(=O)OCC1(COC(=O)CCCCCCCCCCC)CCN(CCCO)CC1 [Compound 18]	94.0	0.212	105.9	7.17
CCCCCCCCCCCC(=O)OCC1(COC(=O)CCCCCCCCCCC)CCN(C(=O)CCN(CC)CCO)CC1 [Compound 3]	96.4	0.165	64.67	7.58
CCCCCCCCCCCC(=O)OCC1(COC(=O)CCCCCCCCCCC)CCN(C(=O)CCCN2CCCCCCC2)CC1 [Compound 42]	96.1	0.298	78.03	7.45
CCCCCCCCCCCC(=O)OCC1(COC(=O)CCCCCCCCCCC)CCN(C(=O)CCN(CCO)CCCC)CC1 [Compound 24]	93.6	0.165	71.61	7.98
CCCCCCCCCCCCCCCC(=O)OCC1(COC(=O)CCCCCCCCCCCCCCC)CCN(C(=O)CCN(CCCCCC)CCCCCC)CC1 [Compound 34]	74.0	0.127	110.4	5.90
CCCCCCCCCCCC(=O)OCC1(COC(=O)CCCCCCCCCCC)CCN(C(=O)CCN2CCCCCC2)CC1 [Compound 7]	98.2	0.101	68	9.02
CCCCCCCCCCCC(=O)OCC1(COC(=O)CCCCCCCCCCC)CCN(C(=O)CCCN(CCO)CCCC)CC1 [Compound 37]	94.9	0.386	95.98	6.04
CCCCCCCCCCCC(=O)OCC1(COC(=O)CCCCCCCCCCC)CCN(C(=O)CCN(CCC)CCC)CC1 [Compound 28]	79.2	0.142	116.2	–

Other lines, results leading:

Encapsulation Efficiency [1] [%]	polydispersity [2]	size (nm) [2] [nm]	Apparant Pka [3]	SMILES
101.1	0.284	83.06	11.73	CCCCCCCCC(CCCCCC)COC(=O)CCCCCC(=O)OCC1(COC(=O)CCCCCC(=O)OCC(CCCCCC)CCCCCCCC)CCN(C(=O)CCN(C)CCO)CC1 (stereo not drawn) [Compound 56]
100.4	0.47	107.3	6.20	CCCCCCCCC(CCCCCC)COC(=O)CCCCCC(=O)OCC1(COC(=O)CCCCCC(=O)OCC(CCCCCC)CCCCCCCC)CCN(C(=O)CCCN(C)C)CC1 (stereo not drawn) [Compound 52]
99.7	0.168	84.09	8.31	CCCCCCCCC(CCCCCC)COC(=O)CCCCCC(=O)OCC1(COC(=O)CCCCCC(=O)OCC(CCCCCC)CCCCCCCC)CCN(C(=O)CCN2CCCCCC2)CC1 (stereo not drawn) [Compound 54]
101.7	0.424	103.3	7.46	CCCCCCCCC(CCCCCC)COC(=O)CCCCCC(=O)OCC1(COC(=O)CCCCCC(=O)OCC(CCCCCC)CCCCCCCC)CCN(C(=O)CCN(C)C)CC1 (stereo not drawn) [Compound 51]
99.7	0.2	54.56	7.65	CCCCCCCCCCCC(=O)OCC1(COCCCCCCCC(=O)OC(CCCCCCCC)CCCCCCCC)CCN(C(=O)CCN(C)C)CC1 [Compound 61]
91.7	0.048	90.17	7.44	CCCCCCCCC(CCCCCC)COC(=O)CCCCCC(=O)OCC1(COC(=O)CCCCCC(=O)OCC(CCCCCC)CCCCCCCC)CCN(C(=O)CCCN2CCOCC2)CC1 (stereo not drawn) [Compound 60]
89.9	0.106	87.01	6.06	CCCCCCCCCCCCCC(=O)OCC1(COC(=O)CCCCCCCCCCCCC)CCN(C(=O)CCN(CCCCCC)CCCCCC)CC1 [Compound 33]
